# Source: BigSolDB 2.1
smiles,measurement,setting,value
NC(=O)N/N=C/c1ccc([N+](=O)[O-])o1,solubility (mole fraction),"in DMF, 278.15 K",0.0219
same,solubility (mole fraction),"in DMF, 283.15 K",0.0227
same,solubility (mole fraction),"in DMF, 288.15 K",0.0235
same,solubility (mole fraction),"in DMF, 293.15 K",0.0246
same,solubility (mole fraction),"in DMF, 298.15 K",0.0265
same,solubility (mole fraction),"in DMF, 303.15 K",0.028
same,solubility (mole fraction),"in DMF, 308.15 K",0.0289
same,solubility (mole fraction),"in DMF, 313.15 K",0.0305
same,solubility (mole fraction),"in acetone, 278.15 K",0.000298
same,solubility (mole fraction),"in acetone, 283.15 K",0.000345
same,solubility (mole fraction),"in acetone, 288.15 K",0.000392
same,solubility (mole fraction),"in acetone, 293.15 K",0.000443
same,solubility (mole fraction),"in acetone, 298.15 K",0.000512
same,solubility (mole fraction),"in acetone, 303.15 K",0.000568
same,solubility (mole fraction),"in acetone, 308.15 K",0.000647
same,solubility (mole fraction),"in acetone, 313.15 K",0.000738
same,solubility (mole fraction),"in acetonitrile, 278.15 K",8.46e-05
same,solubility (mole fraction),"in acetonitrile, 283.15 K",0.000103
same,solubility (mole fraction),"in acetonitrile, 288.15 K",0.000123
same,solubility (mole fraction),"in acetonitrile, 293.15 K",0.000146
same,solubility (mole fraction),"in acetonitrile, 298.15 K",0.000176
same,solubility (mole fraction),"in acetonitrile, 303.15 K",0.000211
same,solubility (mole fraction),"in acetonitrile, 308.15 K",0.000247
same,solubility (mole fraction),"in acetonitrile, 313.15 K",0.000288
same,solubility (mole fraction),"in ethanol, 278.15 K",6.97e-05
same,solubility (mole fraction),"in ethanol, 283.15 K",8.33e-05
same,solubility (mole fraction),"in ethanol, 288.15 K",0.0001
same,solubility (mole fraction),"in ethanol, 293.15 K",0.000121
same,solubility (mole fraction),"in ethanol, 298.15 K",0.000143
same,solubility (mole fraction),"in ethanol, 303.15 K",0.000175
same,solubility (mole fraction),"in ethanol, 308.15 K",0.000213
same,solubility (mole fraction),"in ethanol, 313.15 K",0.000253
same,solubility (mole fraction),"in formamide, 278.15 K",0.00169
same,solubility (mole fraction),"in formamide, 283.15 K",0.00191
same,solubility (mole fraction),"in formamide, 288.15 K",0.00208
same,solubility (mole fraction),"in formamide, 293.15 K",0.00239
same,solubility (mole fraction),"in formamide, 298.15 K",0.00267
same,solubility (mole fraction),"in formamide, 303.15 K",0.00298
same,solubility (mole fraction),"in formamide, 308.15 K",0.00334
same,solubility (mole fraction),"in formamide, 313.15 K",0.00364
same,solubility (mole fraction),"in isopropanol, 278.15 K",7.04e-05
same,solubility (mole fraction),"in isopropanol, 283.15 K",9.57e-05
same,solubility (mole fraction),"in isopropanol, 288.15 K",0.000113
same,solubility (mole fraction),"in isopropanol, 293.15 K",0.000131
same,solubility (mole fraction),"in isopropanol, 298.15 K",0.000169
same,solubility (mole fraction),"in isopropanol, 303.15 K",0.000216
same,solubility (mole fraction),"in isopropanol, 308.15 K",0.000262
same,solubility (mole fraction),"in isopropanol, 313.15 K",0.000344
same,solubility (mole fraction),"in methanol, 278.15 K",0.000148
same,solubility (mole fraction),"in methanol, 283.15 K",0.000172
same,solubility (mole fraction),"in methanol, 288.15 K",0.000201
same,solubility (mole fraction),"in methanol, 293.15 K",0.000233
same,solubility (mole fraction),"in methanol, 298.15 K",0.000282
same,solubility (mole fraction),"in methanol, 303.15 K",0.000326
same,solubility (mole fraction),"in methanol, 308.15 K",0.000387
same,solubility (mole fraction),"in methanol, 313.15 K",0.00044
same,solubility (mole fraction),"in n-propanol, 278.15 K",8.53e-05
same,solubility (mole fraction),"in n-propanol, 283.15 K",0.000106
same,solubility (mole fraction),"in n-propanol, 288.15 K",0.00013
same,solubility (mole fraction),"in n-propanol, 293.15 K",0.000149
same,solubility (mole fraction),"in n-propanol, 298.15 K",0.000188
same,solubility (mole fraction),"in n-propanol, 303.15 K",0.000236
same,solubility (mole fraction),"in n-propanol, 308.15 K",0.000285
same,solubility (mole fraction),"in n-propanol, 313.15 K",0.000368
same,solubility (mole fraction),"in water, 278.15 K",1.31e-05
same,solubility (mole fraction),"in water, 283.15 K",1.62e-05
same,solubility (mole fraction),"in water, 288.15 K",1.88e-05
same,solubility (mole fraction),"in water, 293.15 K",2.29e-05
same,solubility (mole fraction),"in water, 298.15 K",2.92e-05
same,solubility (mole fraction),"in water, 303.15 K",3.66e-05
same,solubility (mole fraction),"in water, 308.15 K",4.5e-05
same,solubility (mole fraction),"in water, 313.15 K",5.89e-05
